Measured values: patent US9127040B2, “Regulation of sodium channels by PLUNC proteins” (The University of North Carolina at Chapel Hill, priority 2011, dated 2015)
“Also recorded” adds a separate entry of the source. Ends that are not written are not given here.

Tests used:
αβγENaC [1] = biological target: T1, αβγENaC (Rattus norvegicus, UniProt P37089+P37090+P37091); test: Amiloride-sensitive whole cell current, two electrode voltage clamp, Xenopus laevis oocytes expressing αβγENaC; type: cell-based
T1 construct: expressed in transfected cells; host or cells: Xenopus laevis oocytes (cRNA injection)
T1 sequence (P37089 1-698): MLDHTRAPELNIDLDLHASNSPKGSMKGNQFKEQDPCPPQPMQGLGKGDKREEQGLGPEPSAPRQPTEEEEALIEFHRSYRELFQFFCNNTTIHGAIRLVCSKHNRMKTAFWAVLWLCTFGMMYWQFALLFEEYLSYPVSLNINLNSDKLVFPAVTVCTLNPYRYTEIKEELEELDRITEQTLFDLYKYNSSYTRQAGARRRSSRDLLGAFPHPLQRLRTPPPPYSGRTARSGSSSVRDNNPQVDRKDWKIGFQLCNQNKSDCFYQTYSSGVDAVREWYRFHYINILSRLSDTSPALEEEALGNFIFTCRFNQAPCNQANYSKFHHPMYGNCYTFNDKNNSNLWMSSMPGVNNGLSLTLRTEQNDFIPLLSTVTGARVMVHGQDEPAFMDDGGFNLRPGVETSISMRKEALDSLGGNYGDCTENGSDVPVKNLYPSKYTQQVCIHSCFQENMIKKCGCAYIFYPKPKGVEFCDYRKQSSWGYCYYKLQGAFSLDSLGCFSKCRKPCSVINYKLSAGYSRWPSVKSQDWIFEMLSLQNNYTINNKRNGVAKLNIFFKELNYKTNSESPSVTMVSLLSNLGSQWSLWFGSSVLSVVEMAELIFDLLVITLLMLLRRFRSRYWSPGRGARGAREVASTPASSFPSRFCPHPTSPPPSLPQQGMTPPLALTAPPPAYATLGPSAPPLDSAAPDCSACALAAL
T1 sequence (P37090 1-638): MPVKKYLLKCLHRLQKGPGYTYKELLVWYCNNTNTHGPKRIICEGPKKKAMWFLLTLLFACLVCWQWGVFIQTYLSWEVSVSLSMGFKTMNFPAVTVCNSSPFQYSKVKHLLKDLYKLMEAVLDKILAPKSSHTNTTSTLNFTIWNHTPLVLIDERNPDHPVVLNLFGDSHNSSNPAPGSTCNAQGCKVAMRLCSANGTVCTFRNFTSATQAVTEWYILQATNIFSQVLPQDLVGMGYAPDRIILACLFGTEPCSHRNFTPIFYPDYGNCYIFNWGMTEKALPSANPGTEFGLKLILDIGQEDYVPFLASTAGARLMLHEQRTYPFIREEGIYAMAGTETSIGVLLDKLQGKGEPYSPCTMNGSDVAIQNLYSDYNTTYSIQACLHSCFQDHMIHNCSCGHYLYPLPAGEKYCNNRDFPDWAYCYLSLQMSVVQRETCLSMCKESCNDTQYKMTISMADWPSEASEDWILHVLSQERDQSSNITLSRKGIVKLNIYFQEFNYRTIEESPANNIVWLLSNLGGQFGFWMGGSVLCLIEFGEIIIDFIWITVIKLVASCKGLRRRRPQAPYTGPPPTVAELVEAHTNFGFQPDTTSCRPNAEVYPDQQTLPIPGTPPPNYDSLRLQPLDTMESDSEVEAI
T1 sequence (P37091 1-650): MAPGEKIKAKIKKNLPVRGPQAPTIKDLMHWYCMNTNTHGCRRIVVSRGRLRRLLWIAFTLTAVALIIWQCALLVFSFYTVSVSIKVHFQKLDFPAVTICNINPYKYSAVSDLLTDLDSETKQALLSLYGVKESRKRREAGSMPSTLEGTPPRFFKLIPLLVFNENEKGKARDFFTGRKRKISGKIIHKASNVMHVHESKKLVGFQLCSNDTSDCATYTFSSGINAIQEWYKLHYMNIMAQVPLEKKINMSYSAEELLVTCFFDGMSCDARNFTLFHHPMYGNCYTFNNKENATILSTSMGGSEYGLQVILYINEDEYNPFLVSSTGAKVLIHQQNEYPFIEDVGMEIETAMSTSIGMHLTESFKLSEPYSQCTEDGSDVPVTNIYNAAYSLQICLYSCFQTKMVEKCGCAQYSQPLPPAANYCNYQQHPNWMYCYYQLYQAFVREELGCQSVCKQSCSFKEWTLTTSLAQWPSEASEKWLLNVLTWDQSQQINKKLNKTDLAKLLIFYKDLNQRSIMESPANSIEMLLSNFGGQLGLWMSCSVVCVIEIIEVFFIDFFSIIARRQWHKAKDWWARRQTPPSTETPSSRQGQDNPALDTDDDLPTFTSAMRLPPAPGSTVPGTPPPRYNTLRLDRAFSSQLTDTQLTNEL
Method: Xenopus laevis oocytes were harvested and injected as described (Donaldson, et al., J. Biol. Chem. 277:8338 (2002)). Defolliculated healthy stage V-VI oocytes were injected with 0.3 ng of CRNA of each ENaC subunit. Injected oocytes were kept in modified Barth's saline (in mM: 88 NaCl, 1 KCl, 2.4 NaHCO3, 0.3 Ca(NO3)2, 0.41 CaCl2, 0.82 MgSO4, and 15 HEPES, adjusted to pH 7.35 with Tris). Oocytes were studied 24 hr after injection using the two electrode voltage clamp technique as previously described (Donaldson, et al., J. Biol. Chem. 277:8338 (2002)). Oocytes were clamped at a holding potential of −60 mV. The change in amiloride-sensitive whole cell current as an indicator of ENaC activity was determined by subtracting the corresponding current value measured in the presence of 10 μM amiloride from that measured before the application of amiloride. Where appropriate, oocytes were incubated with G22-A39 or ABC for 1 h prior to recording. In some experiments β-ENaC^S518C was used which forms ENaCs that are locked into an open probability near 1.0 by exposure to the sulthydral reactive reagent [2-(Trimethyl-ammonium)ethyl]methanethiosulphonate bromide (MTSET). MTSET was added at a concentration of 1 mM to the oocyte bath as previously described (Snyder, J. Clin. Invest. 105: 45 (2000)).

αβγENaC [2] = biological target: T1, αβγENaC; test: Amiloride-sensitive whole cell current, two electrode voltage clamp, Xenopus laevis oocytes expressing αβγENaC; type: cell-based; details: 100 μM in bath for 2 h; pH 6 vs 7.4
αENaC = biological target: T2, αENaC (Rattus norvegicus, UniProt P37089+P37090); test: Surface biotinylation of αENaC in Xenopus oocytes; type: cell-based; details: coexpression with SPLUNC1
T2 construct: expressed in transfected cells; host or cells: Xenopus oocytes
T2 sequence (P37089 1-698): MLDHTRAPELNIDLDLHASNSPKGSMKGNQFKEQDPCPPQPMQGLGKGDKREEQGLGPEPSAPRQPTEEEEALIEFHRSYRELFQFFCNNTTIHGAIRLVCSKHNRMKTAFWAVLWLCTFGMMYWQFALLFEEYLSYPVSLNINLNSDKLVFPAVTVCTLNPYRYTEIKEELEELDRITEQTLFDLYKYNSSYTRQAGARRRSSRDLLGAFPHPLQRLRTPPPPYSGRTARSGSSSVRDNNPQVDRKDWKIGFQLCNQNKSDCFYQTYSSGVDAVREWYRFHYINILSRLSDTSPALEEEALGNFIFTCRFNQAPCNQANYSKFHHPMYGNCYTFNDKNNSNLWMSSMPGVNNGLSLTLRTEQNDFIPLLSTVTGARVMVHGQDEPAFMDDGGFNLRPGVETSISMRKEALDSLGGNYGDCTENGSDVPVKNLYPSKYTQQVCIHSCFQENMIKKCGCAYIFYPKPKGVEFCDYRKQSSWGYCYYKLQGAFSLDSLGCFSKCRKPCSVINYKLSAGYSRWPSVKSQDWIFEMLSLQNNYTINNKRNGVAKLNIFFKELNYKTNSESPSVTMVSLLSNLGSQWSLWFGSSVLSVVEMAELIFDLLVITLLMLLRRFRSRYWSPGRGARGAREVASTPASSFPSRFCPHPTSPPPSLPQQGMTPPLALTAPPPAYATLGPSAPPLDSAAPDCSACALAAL
T2 sequence (P37090 1-638): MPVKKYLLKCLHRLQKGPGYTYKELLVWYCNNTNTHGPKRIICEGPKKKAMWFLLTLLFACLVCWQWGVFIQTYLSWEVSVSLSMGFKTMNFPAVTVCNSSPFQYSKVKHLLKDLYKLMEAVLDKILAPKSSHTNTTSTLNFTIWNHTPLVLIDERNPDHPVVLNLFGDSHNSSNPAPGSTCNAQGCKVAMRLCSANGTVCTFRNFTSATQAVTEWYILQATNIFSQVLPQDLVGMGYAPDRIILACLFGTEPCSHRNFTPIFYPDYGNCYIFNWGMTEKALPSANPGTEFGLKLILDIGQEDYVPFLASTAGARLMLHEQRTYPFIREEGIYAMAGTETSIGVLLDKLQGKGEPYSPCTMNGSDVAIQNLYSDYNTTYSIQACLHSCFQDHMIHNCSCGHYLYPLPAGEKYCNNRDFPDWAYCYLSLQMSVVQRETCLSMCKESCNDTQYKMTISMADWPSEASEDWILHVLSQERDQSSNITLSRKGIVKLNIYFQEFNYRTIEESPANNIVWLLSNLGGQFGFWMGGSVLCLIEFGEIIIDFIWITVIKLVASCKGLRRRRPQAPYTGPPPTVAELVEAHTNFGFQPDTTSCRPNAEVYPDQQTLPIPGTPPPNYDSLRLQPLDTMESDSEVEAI
T2 sequence (P37091 1-650 partner): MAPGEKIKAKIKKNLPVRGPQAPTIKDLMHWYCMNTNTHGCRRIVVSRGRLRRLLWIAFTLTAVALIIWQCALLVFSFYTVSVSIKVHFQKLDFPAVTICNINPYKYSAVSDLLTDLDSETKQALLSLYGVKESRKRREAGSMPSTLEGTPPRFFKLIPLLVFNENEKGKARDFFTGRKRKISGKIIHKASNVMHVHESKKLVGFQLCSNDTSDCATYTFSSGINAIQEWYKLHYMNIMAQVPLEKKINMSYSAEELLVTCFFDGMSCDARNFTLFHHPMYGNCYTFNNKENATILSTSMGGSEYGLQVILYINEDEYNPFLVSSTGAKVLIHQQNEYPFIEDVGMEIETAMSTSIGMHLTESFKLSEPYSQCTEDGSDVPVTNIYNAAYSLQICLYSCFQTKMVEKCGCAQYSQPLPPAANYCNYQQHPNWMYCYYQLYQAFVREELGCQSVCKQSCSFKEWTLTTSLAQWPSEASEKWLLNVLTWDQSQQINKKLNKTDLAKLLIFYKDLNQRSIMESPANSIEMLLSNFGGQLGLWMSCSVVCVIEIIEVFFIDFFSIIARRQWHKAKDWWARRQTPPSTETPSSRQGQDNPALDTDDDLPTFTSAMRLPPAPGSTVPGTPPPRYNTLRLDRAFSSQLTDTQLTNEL
Method: The effect of SPLUNC1 on the number of ENaC channels in the plasma membrane was tested by expressing SPLUNC1 and αENaC in Xenopus oocytes. After surface biotinylation of αENaC, total lysate was prepared and lysate from 3-4 eggs was separated on a 10% gel.

Method for CF HBECs: To label airway surface liquid, Ringer containing Texas Red-dextran (2 mg/ml; Invitrogen) was added to human bronchial epithelial culture mucosal surfaces. Perfluorocarbon was added mucosally to prevent evaporation of the airway surface liquid and the culture placed in a chamber containing 100 μl Ringer on the stage of a Leica SP5 confocal microscope with a 63× glycerol immersion objective. 5 points per culture were scanned and an average airway surface liquid height determined. For confocal microscopy human bronchial epithelial cultures were bathed serosally in a modified Ringer solution containing (mM): 116 NaCl, 10 NaHCO3, 5.1 KCl, 1.2 CaCl2, 1.2 MgCl2, 20 TES, 10 glucose, pH 7.4). At all other times, human bronchial epithelial cultures were maintained in a modified BEGM growth medium which contained 24 mM NaHCO3 gassed with 5% CO2.
To label the ASL, PBS containing 10 kDa Rhodamine dextran (0.2-2 mg/mL; Invitrogen, Carlsbad, Calif., USA) was added to HBEC mucosal surfaces as previously described (Tarran et al., Mol. Cell 8:149 (2001)). When added, peptides with or without 100 nM neutrophil elastase, 1 U/mL aprotinin, activated neutrophil supernatant (ANS) (Haynes et al., Am. J. Physiol. Heart Circ. Physiol. 294:H379 (2008)) or 10 μM sivelestat (Sigma-Aldrich, St Louis, Mo., USA) were added to the mucosal surface along with the Rhodamine dextran. Bumetanide (100 μM) was added to the serosal solution.

Molecule | inhibition of ENaC current by peptide in bath (αβγENaC [1]; 10 μM in oocyte bath for 1 h) | effect of N-terminal biotinylation on ability to inhibit ENaC (αβγENaC [1]; n=6) | ASL absorption (CF HBECs; 10 μM apical, over 24 h) | CF ASL absorption, paired cultures (CF HBECs; 100 μM SPLUNC1 or S18) | IC50 (CF HBECs; 8 h) [nM] | CF ASL hyperabsorption in the presence of activated neutrophil supernatant (CF HBECs; 8 h ASL height, ANS) | CF ASL hyperabsorption in the presence of neutrophil elastase (CF HBECs; 8 h ASL height, neutrophil elastase) | heat stability: inhibition of CF ASL absorption after heating (CF HBECs; peptide heated to 67° C. for 30 min, also with neutrophil elastase) | inhibition of amiloride-sensitive ENaC current at pH 6 (αβγENaC [2]) | activation of ENaC currents by prostasin (CAP1) and CAP2 (αβγENaC [1]; SPLUNC1 co-expressed) | trypsin stimulation of ENaC activity (αβγENaC [1]; SPLUNC1 co-expressed) | inhibition of ENaC by C-terminal truncation mutants (αβγENaC [1]; co-expressed in oocytes, all p<0.0001 where significant) | plasma membrane ENaC (surface biotinylation) (αENaC) | CF ASL volume homeostasis in SPLUNC1 knockdown CF HBECs (CF HBECs; recombinant SPLUNC1 together with POPSO-Ringer)
GGLPVPLDQTLPLNVNPA [S18] | inhibited ENaC to the same degree as the full length protein; also recorded: inhibits both basal and trypsin-stimulated ENaC current | no effect | significantly blocked ASL absorption | inhibited CF ASL absorption | 600 | prevented CF ASL hyperabsorption | prevented CF ASL hyperabsorption | no effect on the ability of S18 to inhibit CF ASL absorption | still inhibits ENaC |  |  |  |  | 
SPLUNC1: human SPLUNC1 (SEQ ID NO:1), 256 amino acid secreted PLUNC family protein; rSPLUNC1 is the purified V5/6His-tagged recombinant form (protein, listed as Homo sapiens, V5/6His tag in recombinant form, rSPLUNC1 is the purified V5/6His-tagged recombinant form) MFQTGGLIVFYGLLAQTMAQFGGLPVPLDQTLPLNVNPALPLSPTGLAGSLTNALSNGLLSGGLLGILENLPLLDILKPGGGTSGGLLGGLLGKVTSVIPGLNNIIDIKVTDPQLLELGLVQSPDGHRLYVTIPLGIKLQVNTPLVGASLLRLAVKLDITAEILAVRDKQERIHLVLGDCTHSPGSLQISLLDGLGPLPIQGLLDSLTGILNKVLPELVQGNVCPLVNEVLRGLDITLVHDIVNMLIHGLQFVIKV |  |  |  |  |  |  |  |  | abolished at pH 6 | significantly reduced | attenuated | Significant inhibition | decreased | required to restore CF ASL volume homeostasis
